3 compounds from ChEMBL document CHEMBL3046281, “Nitrogen Analogues of Aldrin as Noncompetitive Antagonists of GABAA Receptor” (J Pestic Sci, 1995) can be followed below.

Activity calls are given as the source filed them. The calls are words filed in the database; no cut-off is given here.

Assay [1] deals with GABA-A receptor; anion channel. The assay is described as follows: Displacement of [35S]TBPS from gamma-aminobutyric acid type-A receptor in Rattus norvegicus (rat) brain membranes incubated for 90 min by liquid scintillation counting method. Also on record: species or system Membrane. (In general: In a radioligand displacement assay an active substance lowers the binding of a labelled ligand.)

In assay [2] the target is GABA-A receptor; anion channel (Rattus norvegicus) (UniProt O09028+P15431+P18506+P18508+P19969+P20236+P23574+P23576+P28471+P28473+P30191+P62813+P63079+P63138+Q91ZM7+Q9ES14). The assay is described as follows: Competitive inhibition of [35S]TBPS binding to gamma-aminobutyric acid type-A receptor in Rattus norvegicus (rat) brain membranes at 50 nM incubated for 90 min by Scatchard plot. The note with it: Membrane.

In assay [3] the test system is Musca domestica. The assay is described as follows: Insecticidal activity against WHO susceptible Musca domestica (house fly) assessed as compound level causing mortality per fly applied through topical application. Format: functional.

Consider `ClC1=C(Cl)[C@]2(Cl)[C@H]3[C@H]([C@@H]4C[C@H]3N=N4)[C@@]1(Cl)C2(Cl)Cl`, for which the IC50 (usually the concentration at which inhibition is half-maximal) in assay [1] is 48.4 nM. Moreover, the inhibition result in assay [2] was “Active”. For the same compound, the LD50 in assay [3] was found to be 2.8 ng.

As for `[O-][N+]1=N[C@@H]2C[C@H]1[C@H]1[C@@H]2[C@@]2(Cl)C(Cl)=C(Cl)[C@]1(Cl)C2(Cl)Cl` (relative stereo), the IC50 in assay [1] is 119 nM. Besides, the LD50 in assay [3] is 3.1 ng.

As to `ClC1=C(Cl)[C@]2(Cl)[C@@H]3[C@@H]4CC[C@@H](C4)[C@@H]3[C@@]1(Cl)C2(Cl)Cl` [REL-ALDRIN], in assay [1], the concentration for half-maximal inhibition (IC50) came to 53.7 nM. In assay [3], the LD50 turned out to be 18.5 ng.
